Test results from US12714696B2, “Low dose fluralaner compositions for protection against parasitic invertebrate pest” (VIRBAC, priority 2019, dated 2026).
Where two headings read alike, the source gives them in different places.

Assay: Pharmacokinetics after repeated oral administration of 250 μg/kg and 35 μg/kg of fluralaner in dogs after feeding
Assay type: in vivo, beagle dogs
Details: for concentration at 144 h / concentration at 168 h / concentration at 192 h / concentration at 216 h / concentration at 240 h / concentration at 384 h / concentration at 528 h / concentration at 624 h / concentration at 720 h / half-life / Cmax: beagle, dog, plasma, po
Description: The first objective is to obtain the pharmacokinetic parameters after repeated oral administration of […] and 35 μg/kg of fluralaner in dogs after feeding.
The second objective is to investigate the pharmacodynamics between the fluralaner plasmatic dose and the effectiveness against ticks. • IVP: Investigational Veterinary Product, is pure Fluralaner+DMSO (250 μg/kg on Days 0 to 3 (0.25 mL/kg), then 35 μg/kg on Days 4 to 9 (0.35 mL/kg), then 600 μg/kg on Day 11) • Control product is DMSO (0.25 mL/kg on Days 0 to 3, then 0.35 mL/kg on Days 4 to 9)
On Days 0, 1, 2 and 3, all dogs assigned to group 2 received the Investigational Veterinary Product. On Days 0 to 3 all dogs in group 1 received the control product at a volume equal to the dogs in group 2. Dogs assigned to group 1 received the control product and served as Placebo controls. The quantity of Investigational Veterinary Product and control product administered was calculated according to the dog's individual body weight measured on Day −1. […]
On days of administration of pre-Investigational Veterinary Product or Control Product, dogs were fed (the same dog food) approximately half of their normal daily ration 30 minutes to 35 minutes prior to administration. Food consumed by the time of administration was calculated and recorded. The remainder of their normal daily ration was fed immediately after administration.
The PK parameters of fluralaner were calculated using a non-compartmental approach.
The following rules were applied for the calculation of the PK parameters: • All the plasma concentrations, validated by the bioanalytical laboratory, were used for the PK analysis. • The actual blood sampling times were used throughout. • Concentrations below the Limit of Quantification (LOQ) value were considered as zero from time zero (pre-dose) up to the time at which the first quantifiable concentration above the LOQ value was observed. Concentrations below the LOQ value between two quantifiable concentrations were considered as missing. Trailing concentrations below the LOQ value were not used in calculations.
Cmax the observed maximum concentration in plasma measured after dosing.
λz the terminal rate constant (λz) was estimated by log-linear regression analysis on data points visually assessed, to be on the terminal log-linear phase. For the slope of the terminal elimination phase to be accepted as reliable, the following criteria were used: • the terminal data points were apparently randomly distributed about a single straight line (on visual inspection), • a minimum of three data points, including the last measured data point and excluding Cmax, were available for the regression.
t1/2 the terminal plasma half-life (t1/2) was calculated according to the following equation: […]

[1] = oral 250/35/600 μg/kg regimen, dogs, n=6, read-out: fluralaner concentration levels, Maximum
[2] = oral 250/35/600 μg/kg regimen, dogs, n=6, read-out: fluralaner concentration levels, Mean
[3] = oral 250/35/600 μg/kg regimen, dogs, n=6, read-out: fluralaner concentration levels, Median
[4] = oral 250/35/600 μg/kg regimen, dogs, n=6, read-out: fluralaner concentration levels, Minimum
[5] = oral 250 μg/kg Days 0-3, 35 μg/kg Days 4-9, 600 μg/kg Day 11, dogs, read-out: fluralaner concentration levels, individual animal
[6] = oral 250/35/600 μg/kg regimen, dogs, n=6, read-out: fluralaner concentration levels, GeoMean

Cc1cc(C2=NOC(c3cc(Cl)cc(Cl)c3)(C(F)(F)F)C2)ccc1C(=O)NCC(=O)NCC(F)(F)F (stereo not shown) [fluralaner, Fluralaner] showed a concentration at 144 h [1] of 550 ng/mL, a concentration at 144 h [2] of 492 ng/mL and a concentration at 144 h [3] of 496 ng/mL. The concentration at 144 h [4] was 447 ng/mL, the concentration at 168 h [5] was 491 ng/mL and the concentration at 168 h [6] was 517 ng/mL. For the same compound, the concentration at 168 h [1] was 580 ng/mL, the concentration at 168 h [2] was 518 ng/mL and the concentration at 168 h [3] was 520 ng/mL. For the same compound, the concentration at 168 h [4] was 461 ng/mL, the concentration at 192 h [5] was 542 ng/mL and the concentration at 192 h [6] was 508 ng/mL. For the same compound, the concentration at 192 h [1] was 558 ng/mL, the concentration at 192 h [2] was 509 ng/mL and the concentration at 192 h [3] was 520 ng/mL. It also gave a concentration at 192 h [4] of 455 ng/mL, a concentration at 216 h [5] of 477 ng/mL and a concentration at 216 h [6] of 515 ng/mL. It also gave a concentration at 216 h [1] of 650 ng/mL, a concentration at 216 h [2] of 518 ng/mL and a concentration at 216 h [3] of 485 ng/mL. For the same compound, the concentration at 216 h [4] was 468 ng/mL, the concentration at 240 h [5] was 386 ng/mL and the concentration at 240 h [6] was 469 ng/mL. The concentration at 240 h [1] was 724 ng/mL, the concentration at 240 h [2] was 483 ng/mL and the concentration at 240 h [3] was 422 ng/mL. The concentration at 240 h [4] was 368 ng/mL, the concentration at 384 h [5] was 561 ng/mL and the concentration at 384 h [6] was 693 ng/mL. For the same compound, the concentration at 384 h [1] was 1000 ng/mL, the concentration at 384 h [2] was 714 ng/mL and the concentration at 384 h [3] was 654 ng/mL. It also gave a concentration at 384 h [4] of 523 ng/mL, a concentration at 528 h [6] of 327 ng/mL and a concentration at 528 h [1] of 517 ng/mL. For the same compound, the concentration at 528 h [2] was 339 ng/mL, the concentration at 528 h [3] was 320 ng/mL and the concentration at 528 h [4] was 235 ng/mL. The concentration at 624 h [6] was 254 ng/mL, the concentration at 624 h [1] was 403 ng/mL and the concentration at 624 h [2] was 263 ng/mL. For the same compound, the concentration at 624 h [3] was 244 ng/mL, the concentration at 624 h [4] was 182 ng/mL and the concentration at 720 h [5] was 300 ng/mL. It also gave a concentration at 720 h [6] of 262 ng/mL, a concentration at 720 h [1] of 300 ng/mL and a concentration at 720 h [2] of 265 ng/mL. For the same compound, the concentration at 720 h [3] was 280 ng/mL, the concentration at 720 h [4] was 187 ng/mL and the half-life (oral 250 μg/kg Days 0-3, 35 μg/kg Days 4-9, 600 μg/kg Day 11, dogs, read-out: mean terminal half-life (converted)) was 15.5 days. For the same compound, the Cmax (oral 250/35/600 μg/kg regimen, dogs, read-out: Cmax, range) was 561 to 1000 ng/mL, the Cmax (oral 250/35/600 μg/kg regimen, dogs, read-out: mean Cmax) was 733 ng/mL and the half-life (oral 250/35/600 μg/kg regimen, dogs, read-out: terminal half-life, range) was 9.47 to 20.6 days. For the same compound, the steady state concentrations (with the 35 μg/kg per day dose application from Day 4 to Day 9) was “reached”.
